From ChEMBL document CHEMBL1151296, “Ipomopsin, a New Biscoumarin from Ipomopsis aggregata” (J Nat Prod, 1984)
The source made the active and inactive calls. The calls are words filed in the database; no cut-off is given here.

Tests used:
P388 = assay: Cytotoxicity against mouse P388 cells; type: functional, cell-based
KB = assay: Cytotoxicity against human KB cells; type: functional, cell-based

Compound: COc1cc2cc(-c3c(O)c(OC)cc4ccc(=O)oc34)c(=O)oc2cc1O
- Activity (P388): inactive
- Activity (KB): inactive
